Data on four sequences can be found in patent US20250109381A1, “COMPOSITION FOR CULTRING NK CELLS, COMPRISING ALLOFERON, AND METHOD FOR CULTURING NK CELLS USING SAME” (NK MEDICS INC., priority 2022, published 2025).

For assay [1], the system named is NK cells. Nature of the assay: IFN-gamma secretion of NK cells (Human IFN-y ELISA). In kind it is cell-based. To be noted: with IL-2 10 mg/L in typical medium, 48 hours; for IFN-r, Table 6: alloferon 100 mg/L. As to the method:
IFN-r is an indicator of the activity of NK cells, and it is considered as the secretion amount is higher, the cytotoxicity is higher and the differentiation ability increases.
IFN-y secreted from NK cells was measured in the culture medium in which the cells were cultured, using a Human IFN-y ELISA kit (BD Biosciences, San Diego, CA, USA). 100 μl of capture antibody diluted in coating buffer was added to each well of a 96-well plate for ELISA, then sealed and left overnight at 4° C. It was washed three times using wash buffer, and all remaining buffer was removed. 200 μl of assay diluent was added to each well and reacted at room temperature for 1 hour for blocking. It was washed again three times using wash buffer, and all remaining buffer was removed. 100 μl of each prepared IFN-y standard and culture supernatants were added, the plate was sealed, and the reaction was performed at room temperature for 2 hours. It was washed 5 times using wash buffer, and all remaining buffer was removed. 100 μl of Working detector (Detection Antibody+SAv-HRP reagent) was added to each well, the plate was sealed, and reaction was performed at room temperature for 1 hour. It was washed 7 times using wash buffer, and all remaining buffer was removed. 100 μl of Substrate solution was added to each well and the reaction was performed at room temperature while shielding light for 30 minutes. 50 μl of Stop solution was added to each well, and the absorbance was measured at 450 nm within 30 minutes.

Assay [2] relates to NK cells. Put plainly: NK cell activation receptor (NKp30, NKp44, NKp46) and perforin expression by FACS. To be noted: for NKp30 expression / NKp44 expression / NKp46 expression / Perforin expression: NK cells proliferated 21 days, 10 mg/L in NK medium. It is filed as cell-based, human. On the procedure:
Based on the results of Test Example 3, receptor expression was confirmed and compared to measure the activity of NK cells. Specifically, as in Test Example 3, NK cells were cultured in each medium, and in order to measure the activity of NK cells proliferated for 21 days, the proliferated NK cells were isolated by flow cytometry. The expression of activating markers for these cells was further confirmed. The cultured NK cells were washed twice using PBS, then dispensed into a FACS tube at 1×10^6 cells/tube, and 2 ml of PBS was added. Then, centrifugation was performed at 400 g and 4° C. for 5 minutes, and the supernatant excluding cells was removed. 100 μl of 1% albumin was added to the remaining cell pellet, sorted using antibodies (CD3-FITC, CD56-PE) together with PBS, and then isolated according to surface markers. In addition to the isolated cells, NK cells were treated with antibodies (Anti-NKp30, anti-NKp44, anti NKp46, and Perforin) to confirm the expression of activating receptors (NKp30, NKp44, NKp46) and Perforin on the surface of NK cells, and reacted in a light shielding state for 30 minutes, and the cells were washed twice again using PBS. NK cells were suspended in an appropriate amount of PBS, and the data were compared and analyzed using FACS AriaII (BD Biosciences, San Diego, CA, USA).

The test system of assay [3] is NK cells. Nature of the assay: NK cell increase rate by flow cytometry (FACS, CD3-FITC/CD56-PE). It is filed as cell-based, human. The following applies: for NK (share of cells by FACS), Table 3 / NKT (share of cells by FACS), Table 3: 10 mg/L in NK cell culture medium of Example 1, 21 days. As to the method: Flow Cytometry (FACS analysis) analysis was performed to confirm the NK cell increase rate. Specifically, NK cells were cultured for 21 days in a medium containing 10 mg/L each of Test Example 1, Example 1 (untreated), and Alloferon 1 to 4 in Example 1. Cells before and after culture were collected by centrifugation at 1,400 rpm for 5minutes, and the collected cells were washed twice using PBS. Then, the cells were suspended in 1 ml of PBS, and the number of living cells was measured through Trypan blue staining. The cells were dispensed into FACS tubes at 1×10^6 cells/tube, and 2 ml of PBS was added. Then, centrifugation was performed at 400 g and 4° C. for 5 minutes, and the supernatant excluding cells was removed. 100 μl of 1% albumin was added to the remaining cell pellet, and antibodies were added and mixed with PBS. NK cells were treated with antibodies (CD3-FITC, CD56-PE), reacted in a light shielding state for 30 minutes, and then the cells were washed twice with PBS. NK cells were suspended in an appropriate amount of PBS, and then the data were compared and analyzed using FACSVerse (BD Biosciences, San Diego, CA, USA).

The test system of assay [4] is NK cells. Nature of the assay: Cell proliferation assay (incorporation of [3H]-thymidine), NK cell culture with added alloferon. It is filed as cell-based, human. To be noted: 0.1 to 100 mg/L tested, cultured 21 days, FIG. 3. On the procedure:
30 ml of blood was collected from a human blood donor, RosetteSep NK enrichment antibody cocktail (50 ul/ml) was added thereto, and then diluted 1:1 v/v with phosphate buffer solution (PBS). The blood was centrifuged at 1600 rpm for 20 minutes using a density gradient centrifugation (Ficoll-Plaque) to separate the cell layer containing NK cells. The process of washing and centrifuging this with PBS was repeated twice. Then, the number of cells was counted by staining with trypan blue, and the average number of cells obtained was 1.6˜3.0×10^5 cell/ml, and the cells were cultured in NK cell culture medium.
The NK cell culture medium used was a combination of various substances that were conventionally known to be necessary for NK culture. […] This was used as the NK cell culture medium of Example 1, to which alloferon was further mixed and used at 0.1 to 100 mg/L as needed. […]
Specifically, NK cells (1×10^5 cells/ml) were placed in 96-well plates, and then treated with 10 mg/L each of alloferons 1 to 4 in the NK cell culture medium of Example 1, and then cultured in an environment at 5% CO2, 37° C. for 48 hours or 21 days. […] After that, the radioactivity was measured using 1450 MicroBeta TriLux (PerkinElmer Life and Analytical Sciences).

The test system of assay [5] is NK cells. Put plainly: Co-treatment of alloferon and other interleukins, NK cell proliferation. It is filed as cell-based, human. To be noted: only alloferon 1 added at 10 mg/L, 21 days, FIG. 4. As to the method: Specifically, NK cells (1×10^5 cells/ml) were placed in 96-well plates, and then treated with 10 mg/L each of alloferons 1 to 4 in the NK cell culture medium of Example 1, and then cultured in an environment at 5% CO2, 37° C. for 48 hours or 21 days. After the culture, [^3H]-thymidine (37 mBq) was added at 0.2 μCi per well and cultured for 8 hours. Both cells and medium were transferred to a glass fiber filter (size 90.120 mm; Wallac, Turkr, Finland) using a 96-well harvester. After drying the filter, a scintillator sheet (Meltilex, Wallac) was melted to coat the filter. After that, the radioactivity was measured using 1450 MicroBeta TriLux (PerkinElmer Life and Analytical Sciences).
In order to identify factors that imparts the influence other than alloferon during NK cell culture, the NK cell proliferation effect was confirmed after co-treatment with various combinations of interleukins. Except for the medium composition, the NK cell culture method was the same as in Test Example 1, and the cells were cultured for 21 days (*** random period).

Where [6] appears, read: after culture (day 21), 10 mg/L in NK cell culture medium of Example 1.

“GVSGHGQHGVHG (engineered from known peptides) [Alloferon 2]”: the “IFN-r, Table 6” value in assay [1] was 4.87 µg/L. In assay [2], this sequence came in with an NKp30 expression of 53.2%, an NKp44 expression of 50.9%, an NKp46 expression of 78.6% and a Perforin expression of 99.9%. Also, in assay [3], the “NK (share of cells by FACS), Table 3” value was found to be 73.8% and the “NKT (share of cells by FACS), Table 3” value came out at 12.4%.
Turning to “HGVSGHGQHGVHG (engineered from known peptides) [Alloferon 1]”, in assay [1], the “IFN-r, Table 6” value was 6.32 µg/L. This sequence also returned an IFN-r in assay [1] (alloferon 1 0.1 mg/L) of 0.13 µg/L. Also, the IFN-r in assay [1] (alloferon 1 5 mg/L) was found to be 1.82 µg/L. This sequence also yielded an IFN-r in assay [1] (alloferon 1 10 mg/L) of 2.33 µg/L. Further, the IFN-r in assay [1] (alloferon 1 50 mg/L) stood at 4.86 µg/L. The IFN-r in assay [1] (alloferon 1 100 mg/L) was found to be 6.32 µg/L. The “NK activity versus typical medium or NK cell culture medium of Example 1” value in assay [2] (21 days culture, FIG. 6 / Table 4) was “higher NK activity”. In assay [2], this sequence came in with an NKp30 expression of 57.4%, an NKp44 expression of 60.3%, an NKp46 expression of 88.4% and a Perforin expression of 99.8%. In assay [3], the “NK (share of cells by FACS), Table 3” value is 74.7% and the “NKT (share of cells by FACS), Table 3” value was determined as 6.5%. In addition, in assay [3] (10 mg/L, day 0 to day 21), the “increase in number of NK cells compared to typical medium (RPMI)” value is on record as 1,430 times, the “increase of NK cells” value is 8,790 fold and the “increase of NKT cells” value stood at 560 fold. Also, in assay [3] (setting [6]), the “NK (share of cells by FACS)” value worked out at 74.7% and the “NKT (share of cells by FACS)” value was found to be 6.5%. Moreover, in assay [3] (before culture (day 0)), the “NK (share of cells by FACS)” value is 12.2% and the “NKT (share of cells by FACS)” value worked out at 1.7%. Besides, the “concentration at which the maximum amount of NK cells was reached” value in assay [4] was 10 mg/L. Further, the NK cell proliferation result in assay [5] is listed as “NK cell proliferation was induced”.
“SGHGQHGV (engineered from known peptides) [Alloferon 3]”: the “IFN-r, Table 6” value in assay [1] turned out to be 3.31 µg/L. In assay [2], this sequence came in with an NKp30 expression of 47.8%, an NKp44 expression of 51.3%, an NKp46 expression of 69.1% and a Perforin expression of 90.4%. Besides, in assay [3], the “NK (share of cells by FACS), Table 3” value was determined as 69.7% and the “NKT (share of cells by FACS), Table 3” value is 13.2%.
With “VSGHGQHGVH (engineered from known peptides) [Alloferon 4]”, the “IFN-r, Table 6” value in assay [1] worked out at 5.84 µg/L. Also, in assay [2], the NKp30 expression is given as 61.1%, the NKp44 expression came out at 68.2%, the NKp46 expression came out at 82.5% and the Perforin expression is recorded as 99.8%. Besides, in assay [3], the “NK (share of cells by FACS), Table 3” value was found to be 71.5% and the “NKT (share of cells by FACS), Table 3” value is 8.4%.
